Patent US20130189773A1, “PRODUCTION OF HYPOTHIOCYANITE FROM HALOGENATED CELLS” (priority 2012, published 2013)

How the values were obtained:
A549 cells [1] = test: flow cytometry of percent live, necrotic and apoptotic A549 cells; format: cell-based, human
Experimental: A549 cells were untreated (A), treated with 50 μM HOCl (B), treated with 50 μM SCN^− followed by treatment with 50 μM HOCl, (C), or treated with 50 μM HOCl followed by treatment 30 minutes later with 50 μM SCN^− (D).
Using the same protocol that was used to investigate the reaction of intracellular chloramines with SCN^− (FIG. 3), flow cytometry was employed to investigate the percent of live, necrotic, and apoptotic cells (FIG. 4).

GSH reductase (GOR) = molecular target: T1, GSH reductase (GOR) (Homo sapiens, UniProt P00390); test: inhibition of GSH reductase (GOR) by HOCl and repair by SCN^− (GOR-catalyzed reduction of GSSG by NADPH, kinetic traces at 340 nm); format: biochemical
T1 sequence (P00390 45-522 limits assumed): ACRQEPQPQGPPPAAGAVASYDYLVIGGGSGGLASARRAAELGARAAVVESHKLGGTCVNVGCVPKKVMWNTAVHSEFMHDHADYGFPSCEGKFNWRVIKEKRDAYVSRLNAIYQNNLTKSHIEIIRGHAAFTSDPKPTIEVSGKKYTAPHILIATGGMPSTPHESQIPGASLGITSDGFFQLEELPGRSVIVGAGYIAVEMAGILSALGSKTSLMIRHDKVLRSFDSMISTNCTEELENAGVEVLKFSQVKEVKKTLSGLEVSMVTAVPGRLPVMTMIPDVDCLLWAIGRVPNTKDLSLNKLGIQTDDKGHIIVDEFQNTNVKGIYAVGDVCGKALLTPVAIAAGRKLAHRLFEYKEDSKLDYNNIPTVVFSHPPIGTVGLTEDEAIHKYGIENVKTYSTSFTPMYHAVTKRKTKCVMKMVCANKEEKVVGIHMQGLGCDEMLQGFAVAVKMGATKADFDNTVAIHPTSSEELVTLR
Experimental: FIG. 2 contains kinetic traces at 340 nm depicting the GOR-catalyzed reduction of GSSG by NADPH. Conditions: (Control) [GSSG]o=1 mM, [NADPH]o=0.1 mM, [GOR]=0.025 U/mL, [iP]=0.1 M, pH 7.4 and T=25° C.; (SCN^- treated) GOR incubated with 40 μM HOCl for 20 minutes and then treated with 160 μM SCN^- for another 20 minutes. (HOCl modified) GOR incubated with 40 μM HOCl for 20 minutes and then treated with iP for an additional 20 minutes. […] Glutathione (GSH) is a major non-protein thiol in cells (up to mM concentrations have been reported in some cells). One of the cellular functions of GSH is to serve as an antioxidant, and thus GSH is essential for cell survival, especially during conditions of oxidative stress. Many of the important residues in the active site of GOR, including two cysteines ([…]) and tyrosine ([…]), are susceptible to HOCl attack. Oxidation of these residues results in the inhibition of enzyme activity.

A549 cells [2] = test: fluorescent probe detection of HOCl-produced intracellular chloramines in A549 cells; format: cell-based, human
Experimental: In each experiment, A549 cells were incubated with 50 μM HOCl in RPMI culture medium for 20 min at 37° C. and washed with the medium to remove residual HOCl; the cells were then incubated for an additional 20 minutes at 37° C. with 50 μM SCN^− and washed again with the medium. FIG. 3D illustrates the structure of the rhodamine-hydroxymic acid-based probe utilized in FIGS. 3A-C.

loss of enzyme activity (GSH reductase (GOR); GOR ~1.3 nM treated with 40 μM HOCl for 20 minutes, loss within 13 minutes, pH 7.4, 25° C.) [%]	SMILES	cell killing (A549 cells [1]; 50 μM HOCl (FIG. 4B))	apoptotic cells (A549 cells [1]; under the conditions of these experiments (50 μM HOCl with or without 50 μM SCN^−))	fluorescence with probe compound (1) (intracellular chloramines) (A549 cells [2]; A549 cells treated with 50 μM HOCl 20 min 37° C., then probe (FIG. 3B))	recovery of HOCl-damaged cells (A549 cells [1]; 50 μM SCN^− added within 30 minutes after 50 μM HOCl (FIG. 4D))	protection of cells from HOCl (A549 cells [1]; 50 μM SCN^− present before 50 μM HOCl was added (FIG. 4C))	recovery of HOCl-damaged cells (A549 cells [1]; interval for addition of SCN^− after HOCl 1 hour or more (data not shown))	enzyme activity recovered (GSH reductase (GOR); HOCl-modified GOR (40 μM HOCl, 20 minutes) subsequently treated with 160 μM SCN^− for 20 minutes) [%]	fluorescence with probe compound (1) (intracellular chloramines) (A549 cells [2]; A549 cells treated with 50 μM HOCl and subsequently with 50 μM SCN^− 20 minutes (FIG. 3C))	fluorescence with probe compound (1) (intracellular chloramines) (A549 cells [2]; A549 cells treated with HOCl in the presence of SCN^− (data not shown))
~82	OCl [HOCl, hypochlorous acid, reference compound]	kill roughly half of the cells	essentially no apoptotic cells were observed	fluoresced						
	N#CS [SCN^−, thiocyanate]				the cells were resuscitated	efficient scavenger of HOCl	recovery was not observed	~89	do not fluoresce	did not fluoresce
